Data published in US10202326B2, “Polyprenylated phloroglucinol compounds as potent P-glycoprotein inducers” (COUNCIL OF SCIENTIFIC & INDUSTRIAL RESEARCH, priority 2014, dated 2019).
Like-named read-outs stand apart in the source and are kept apart here.

What was measured:
[1] = Cytotoxicity in LS-180 cells using MTT assay; settings: human
Method: (§1) Compounds proposed in present invention were evaluated for their cytotoxic effect in LS-180 cells using MTT assay. In each well of a 96-well plate, 3×10^3 cells were grown in 100 μL of medium. After 24 h, each test molecules were added to achieve a final concentration of 10 to 0.01 μmol/L, respectively. After 48 h of treatment, 20 μL of 2.5 mg/mL MTT solution in phosphate buffer saline was added to each well. After 48 h, supernatant was removed and formazan crystals were dissolved in 200 μL of DMSO. Absorbance was then measured at 570 nm using an absorbance plate reader. Data are expressed as the percentage of viable cells in treated relative to non-treated conditions.

[2] = tested on: P-glycoprotein (Pgp); experiment: Pgp-induction assay, rhodamine123 (Rh123) cell exclusion method in LS180 cells; type: cell-based; settings: for EC50: 48 h treatment, Rh123 fluorescence; for Pgp induction activity compared to parent natural product: 1b, 1g versus garcinol (1a), 2b versus isogarcinol (2a)
Method: All synthesized compounds were screened for their ability to induce Pgp by using rhodamine123 (Rh123) cell exclusion method. In this method, the Pgp function was evaluated in terms of rhodamine 123 (Rh123) accumulations and efflux. Briefly, the protocol used is as follows: Colorectal LS180 cells Colorectal LS-180 cells [obtained from ECACC (European Collection of Cell Cultures) catalogue number: 87021202; passage number 52] were seeded at a density of 2×10^4 per well of 96 well plate and were allowed to grow for next 24 h. Cells were further incubated with the test compounds, and were diluted to a final concentration of 100 nM and rifampicin (standard) to a final concentration of 10 μM in complete media for 48 h. The final concentration of DMSO was kept at 0.1%. Drugs were removed and cells were incubated with HANKS buffer for 40 minutes before further incubation with HANKS buffer (containing 10 μM of Rh123 as a Pgp substrate) for 90 minutes. At the end of Rh123 treatment cells were washed four times with cold PBS followed by cell lysis for 1 h by using 200 μl of lysis buffer (0.1% Triton X-100 and 0.2 N NaOH). A total of 100 μl of lysate was used for reading fluorescence of Rh123 at 485 nm/529 nm. Samples were normalized by dividing fluorescence of each sample with total protein present in the lysate. […] For EC50 determination, different concentrations of compound were used to treat LS180 cells for 48 h. EC50 was determined by plotting fluorescence of Rh123 against concentration of compound.

[3] = in vitro; settings: human
Method: as §1

[4] = LS-180 cells, read-out: Pgp induction EC50
[5] = LS180 cells, values in text, read-out: EC50 for p-glycoprotein induction activity

CC(C)=CC[C@H]1C[C@@]23C[C@@H](CC=C(C)C)C(C)(C)[C@@](CC=C(C)C)(C(=O)C(C(=O)c4ccc(O)c(O)c4)=C2OC1(C)C)C3=O [Compound 2a, Isogarcinol, reference compound]
IC50 at 48 h [1]: 11000 nM
EC50 [2, 4]: 7 nM

CC(C)=CCOc1ccc(C(=O)C2=C3OC(C)(C)C(CC=C(C)C)CC34CC(CC=C(C)C)C(C)(C)C(CC=C(C)C)(C2=O)C4=O)cc1OCC=C(C)C (centres unmarked) [Compound 2b, 3′,4′-di-(O-prenyl)-isogarcinol]
IC50 at 48 h [1]: 40000 nM
EC50 [2, 5]: 2.9 nM
Pgp induction activity compared to parent natural product ([2]; LS180 cells): better

C=C(C)[C@@H](CC=C(C)C)C[C@@]12C[C@@H](CC=C(C)C)C(C)(C)[C@@](CC=C(C)C)(C(=O)C(C(=O)c3ccc(O)c(O)c3)=C1O)C2=O [Compound 1a, Garcinol, reference compound]
IC50 at 48 h [3]: 20000 nM
EC50 [2, 4]: 12 nM

C=C(C)C(CC=C(C)C)CC12CC(CC=C(C)C)C(C)(C)C(CC=C(C)C)(C(=O)C(C(=O)c3ccc(OC(=O)CCC)c(OC(=O)CCC)c3)=C1O)C2=O (centres unmarked) [Compound 1b, 3′,4′-Di-(O-Butanoyl)-Garcinol]
EC50 [2, 5]: 8.9 nM
Pgp induction activity compared to parent natural product ([2]; LS180 cells): better

C=C(C)C(CC=C(C)C)CC12CC(CC=C(C)C)C(C)(C)C(CC=C(C)C)(C(=O)C(C(=O)c3ccc(OCc4ccccc4[N+](=O)[O-])c(OCc4ccccc4[N+](=O)[O-])c3)=C1O)C2=O (centres unmarked) [Compound 1g, 3′,4′-di-[O-(2″-nitro-benzyl)]-garcinol]
IC50 at 48 h [1]: > 100000 nM
EC50 [2, 5]: 6.8 nM
